Reference: ChEMBL document CHEMBL1201862, “PubChem BioAssay data set” (2004)
The source made the active and inactive calls.

Tests used:
[1] = HRAS-V12 fibroblast viability reduction – cell-based, Alamar Blue, dry powder, Ras selective lethality project, primary screen (AID 493045); type: functional; settings: BJeLR
[2] = BJeHLT cell viability loss – BJeHLT cells, dry powder, counter-screen for Ras selective lethality project, dose response (AID 493052); type: functional, cell-based; settings: Homo sapiens
[3] = DRD BJ cell killing, Ras synthetic lethality – DRD BJ fibroblasts, HRASV12, dry powder, dose response (AID 493049); type: functional, cell-based
[4] = BJeH cell viability loss – BJeH cells, dry powder, counter-screen for Ras selective lethality project, dose response (AID 493054); type: functional, cell-based
[5] = molecular target: T1, RNA-binding protein pos-1 (Caenorhabditis elegans, UniProt G5EF15); assay: disruptors of C. elegans POS-1 RNA interaction – biochemical, fluorescence polarization, dose response (AID 1964);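 also: purified POS-1 fused to maltose binding protein made in E. coli; potency of compounds blocking POS-1 binding to fluorescent RNA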
T1 sequence (G5EF15 whole entry): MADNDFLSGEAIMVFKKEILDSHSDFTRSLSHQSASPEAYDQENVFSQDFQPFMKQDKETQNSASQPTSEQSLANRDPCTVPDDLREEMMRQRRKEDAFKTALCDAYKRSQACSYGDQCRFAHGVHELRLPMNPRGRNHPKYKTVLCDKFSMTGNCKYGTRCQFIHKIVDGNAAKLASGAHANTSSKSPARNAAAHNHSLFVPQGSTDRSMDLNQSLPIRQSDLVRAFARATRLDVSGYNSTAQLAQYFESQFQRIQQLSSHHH

[6] = molecular target: T2, Zinc finger protein mex-5 (Caenorhabditis elegans, UniProt Q9XUB2); assay: potency of MEX-5 RNA-binding blockers – biochemical, C. elegans, fluorescence polarization, dose response (AID 1960)
T2 sequence (Q9XUB2 whole entry): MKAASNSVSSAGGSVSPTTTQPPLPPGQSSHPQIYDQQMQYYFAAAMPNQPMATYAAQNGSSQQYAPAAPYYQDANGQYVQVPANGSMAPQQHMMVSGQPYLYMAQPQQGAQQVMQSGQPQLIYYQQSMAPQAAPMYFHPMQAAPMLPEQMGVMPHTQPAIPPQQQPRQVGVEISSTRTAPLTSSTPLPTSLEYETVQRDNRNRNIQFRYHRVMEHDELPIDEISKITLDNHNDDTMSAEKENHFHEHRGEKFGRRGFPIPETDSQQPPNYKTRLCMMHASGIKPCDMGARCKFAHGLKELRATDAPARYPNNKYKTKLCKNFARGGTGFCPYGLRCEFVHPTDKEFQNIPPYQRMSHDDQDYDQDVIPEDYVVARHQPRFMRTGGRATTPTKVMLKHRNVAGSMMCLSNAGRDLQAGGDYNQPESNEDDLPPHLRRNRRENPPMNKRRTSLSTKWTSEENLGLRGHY

[7] = molecular target: Glyceraldehyde-3-phosphate dehydrogenase (Homo sapiens, UniProt P04406)
[8] = molecular target: Heat shock cognate 71 kDa protein (Homo sapiens, UniProt P11142); assay: In Vitro Hsc70 Dose Response Fluorescence Polarization Assay. [Related pubchem assays: 1072 ]
[9] = molecular target: Heat shock 70 kDa protein 1A (Homo sapiens, UniProt P0DMV8); assay: inhibition of Hsp70 binding activity – biochemical, fluorescence polarization, SAR follow-up (AID 1072)
Genome polyprotein = Genome polyprotein (dengue virus type 2, UniProt P29990); assay: flavivirus cap methylation enzyme inhibition – biochemical, confirmation dose response, primary screen (AID 588689); type: functional
ORF 73 = ORF 73 (Human herpesvirus 8, UniProt O40947); assay: KSHV LANA DNA-binding disruption – biochemical, fluorescence polarization, cherry-picked samples, dose response (AID 504725); set-up: species or system Human gammaherpesvirus 8;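 also: fluorescence polarization of a labeled DNA duplex reporting LANA DNA binding; potency is for inhibitors that block LANA binding to the DNA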
[10] = viability of uninfected HEp-2 cells – cell-based, HTS, cytotoxicity control for RSV inhibitor project, dose response (AID 2410); type: functional; settings: human respiratory syncytial virus
Caspase-7 = Caspase-7 (Homo sapiens, UniProt P55210); assay: activation of caspase-7 zymogen – biochemical, absorbance, counter-screen for procaspase-3 activator project, dose response (AID 489013)
Caspase-3 = molecular target: T3, Caspase-3 (Homo sapiens, UniProt P42574); assay: activation of caspase-3 zymogen – biochemical, absorbance, dose response (AID 489014)
T3 sequence (P42574 whole entry): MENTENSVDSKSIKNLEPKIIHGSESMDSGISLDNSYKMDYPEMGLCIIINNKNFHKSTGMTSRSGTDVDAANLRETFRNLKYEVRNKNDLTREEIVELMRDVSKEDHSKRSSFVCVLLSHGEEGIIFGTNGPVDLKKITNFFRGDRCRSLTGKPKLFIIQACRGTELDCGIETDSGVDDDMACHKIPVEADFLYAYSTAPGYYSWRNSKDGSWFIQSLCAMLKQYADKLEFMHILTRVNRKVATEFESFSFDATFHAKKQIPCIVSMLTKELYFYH

[11] = viability of HCT116 lacking mutant beta-catenin – cell-based, human colon tumor, dose response (AID 1045); type: functional;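 also: HCT116 colon tumor cells with beta catenin knocked out; cells exposed to compound for 60 hours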
[12] = molecular target: T4, Probable nicotinate-nucleotide adenylyltransferase (Staphylococcus aureus (strain N315), UniProt P65502); type: functional, Staphylococcus aureus subsp. aureus N315; settings: read-out: IC50_Mean;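 as to IC50 Mean: confirmatory dose-response retesting of NadD inhibitor hits first found in an ultra-high-throughput screen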
[13] = molecular target: T4, Probable nicotinate-nucleotide adenylyltransferase; type: functional, Staphylococcus aureus subsp. aureus N315
[14] = viability of PTEN-deleted HCT116 cells – cell-based, HCT116 PTEN knockout, dose response (AID 1047); type: functional;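 also: HCT116 colon tumor cells with PTEN knocked out; cells exposed to compound for 60 hours before readout; potency for loss of cell viability measured by luminescence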
INS1 = assay: INS-1E survival protection against cytokine death – cell-based, luminescence, retest, dose response (AID 449756); type: functional; settings: Rattus norvegicus;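 also: cell death triggered by IL-1 beta plus TNF-alpha plus IFN-gamma mixture; protective hits raise ATP signal compared with cytokine alone wells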
[15] = molecular target: Eukaryotic translation initiation factor 4H (Homo sapiens, UniProt Q15056); assay: inhibitors of translation initiation factor eIF4H – SAR follow-up (AID 435011); type: functional
[16] = molecular target: Polyadenylate-binding protein 1 (Homo sapiens, UniProt P11940); assay: PABP inhibition in translation initiation, SAR follow-up (AID 435018); type: functional
Polyadenylate-binding protein 1, sequence (P11940 whole entry): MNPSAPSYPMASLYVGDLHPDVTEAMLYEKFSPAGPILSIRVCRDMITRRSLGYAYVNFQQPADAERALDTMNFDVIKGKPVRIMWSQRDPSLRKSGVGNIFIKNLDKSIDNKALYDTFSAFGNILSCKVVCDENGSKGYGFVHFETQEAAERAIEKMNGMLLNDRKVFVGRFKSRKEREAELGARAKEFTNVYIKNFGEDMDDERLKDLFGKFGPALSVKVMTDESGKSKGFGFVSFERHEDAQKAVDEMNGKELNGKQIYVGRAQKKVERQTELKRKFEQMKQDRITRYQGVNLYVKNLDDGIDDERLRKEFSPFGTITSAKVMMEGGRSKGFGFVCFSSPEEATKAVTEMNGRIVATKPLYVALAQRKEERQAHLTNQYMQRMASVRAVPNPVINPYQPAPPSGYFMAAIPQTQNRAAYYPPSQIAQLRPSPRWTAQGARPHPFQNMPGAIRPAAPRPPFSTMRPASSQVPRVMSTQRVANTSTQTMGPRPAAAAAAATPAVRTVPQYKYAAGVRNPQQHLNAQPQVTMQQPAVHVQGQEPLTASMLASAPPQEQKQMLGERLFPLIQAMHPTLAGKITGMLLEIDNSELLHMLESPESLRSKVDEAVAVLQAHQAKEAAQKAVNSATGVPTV

T4 sequence (P65502 whole entry): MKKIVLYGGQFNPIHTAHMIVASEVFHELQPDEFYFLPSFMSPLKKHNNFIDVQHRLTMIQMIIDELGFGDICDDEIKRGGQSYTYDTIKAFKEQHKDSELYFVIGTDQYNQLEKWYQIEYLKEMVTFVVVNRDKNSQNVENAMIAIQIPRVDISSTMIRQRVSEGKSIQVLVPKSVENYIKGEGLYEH
Caspase-7, sequence (P55210 24-198 limits assumed): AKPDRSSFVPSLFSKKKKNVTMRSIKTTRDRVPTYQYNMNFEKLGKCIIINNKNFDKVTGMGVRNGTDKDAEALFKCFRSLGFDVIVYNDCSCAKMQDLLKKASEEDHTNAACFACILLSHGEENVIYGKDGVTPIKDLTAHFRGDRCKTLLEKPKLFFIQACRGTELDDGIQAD
Caspase-7, sequence (P55210 207-303 limits assumed): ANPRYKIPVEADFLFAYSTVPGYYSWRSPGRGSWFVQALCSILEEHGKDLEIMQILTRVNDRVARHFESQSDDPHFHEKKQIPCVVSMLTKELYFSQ
Heat shock 70 kDa protein 1A, sequence (P0DMV8 whole entry): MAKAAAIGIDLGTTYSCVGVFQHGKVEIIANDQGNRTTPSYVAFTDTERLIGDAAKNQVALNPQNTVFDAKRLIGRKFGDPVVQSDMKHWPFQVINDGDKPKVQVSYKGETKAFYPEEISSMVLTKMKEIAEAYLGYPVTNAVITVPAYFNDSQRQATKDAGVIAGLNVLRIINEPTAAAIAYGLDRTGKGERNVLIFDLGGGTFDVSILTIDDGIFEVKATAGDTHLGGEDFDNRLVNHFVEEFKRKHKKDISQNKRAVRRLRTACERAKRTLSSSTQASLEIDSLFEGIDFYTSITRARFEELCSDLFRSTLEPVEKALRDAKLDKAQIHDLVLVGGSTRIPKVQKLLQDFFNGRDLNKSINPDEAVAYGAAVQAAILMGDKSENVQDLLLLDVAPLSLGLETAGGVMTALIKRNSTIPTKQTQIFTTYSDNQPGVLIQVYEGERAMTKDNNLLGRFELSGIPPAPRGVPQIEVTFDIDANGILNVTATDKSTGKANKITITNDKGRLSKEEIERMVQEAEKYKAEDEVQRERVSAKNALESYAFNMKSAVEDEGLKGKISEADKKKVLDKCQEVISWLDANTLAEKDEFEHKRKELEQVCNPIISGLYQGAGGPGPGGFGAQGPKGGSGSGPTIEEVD
Genome polyprotein, sequence (P29990 2492-3391 limits assumed): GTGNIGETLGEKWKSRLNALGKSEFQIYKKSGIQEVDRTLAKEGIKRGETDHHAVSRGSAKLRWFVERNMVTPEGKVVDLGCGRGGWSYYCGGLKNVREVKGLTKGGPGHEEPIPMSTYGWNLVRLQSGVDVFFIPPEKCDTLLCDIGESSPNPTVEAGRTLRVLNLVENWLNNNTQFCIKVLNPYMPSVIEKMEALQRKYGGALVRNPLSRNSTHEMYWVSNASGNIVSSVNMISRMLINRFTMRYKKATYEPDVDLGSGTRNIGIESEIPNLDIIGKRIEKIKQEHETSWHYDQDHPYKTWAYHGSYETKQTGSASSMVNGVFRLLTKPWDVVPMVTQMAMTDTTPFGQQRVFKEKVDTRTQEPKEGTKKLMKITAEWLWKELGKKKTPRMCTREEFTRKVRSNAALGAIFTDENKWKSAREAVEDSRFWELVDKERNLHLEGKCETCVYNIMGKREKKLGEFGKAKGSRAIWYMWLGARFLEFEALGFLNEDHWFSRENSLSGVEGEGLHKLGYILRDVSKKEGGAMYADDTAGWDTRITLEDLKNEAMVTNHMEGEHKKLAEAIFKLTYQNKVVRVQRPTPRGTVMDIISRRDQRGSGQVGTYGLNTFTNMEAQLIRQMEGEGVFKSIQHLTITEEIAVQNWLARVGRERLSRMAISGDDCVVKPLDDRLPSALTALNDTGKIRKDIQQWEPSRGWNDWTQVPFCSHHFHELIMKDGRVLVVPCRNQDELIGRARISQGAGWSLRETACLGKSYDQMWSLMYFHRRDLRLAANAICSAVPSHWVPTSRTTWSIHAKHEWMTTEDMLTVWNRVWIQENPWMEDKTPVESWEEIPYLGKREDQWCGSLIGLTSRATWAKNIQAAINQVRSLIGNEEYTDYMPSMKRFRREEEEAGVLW
ORF 73, sequence (O40947 whole entry): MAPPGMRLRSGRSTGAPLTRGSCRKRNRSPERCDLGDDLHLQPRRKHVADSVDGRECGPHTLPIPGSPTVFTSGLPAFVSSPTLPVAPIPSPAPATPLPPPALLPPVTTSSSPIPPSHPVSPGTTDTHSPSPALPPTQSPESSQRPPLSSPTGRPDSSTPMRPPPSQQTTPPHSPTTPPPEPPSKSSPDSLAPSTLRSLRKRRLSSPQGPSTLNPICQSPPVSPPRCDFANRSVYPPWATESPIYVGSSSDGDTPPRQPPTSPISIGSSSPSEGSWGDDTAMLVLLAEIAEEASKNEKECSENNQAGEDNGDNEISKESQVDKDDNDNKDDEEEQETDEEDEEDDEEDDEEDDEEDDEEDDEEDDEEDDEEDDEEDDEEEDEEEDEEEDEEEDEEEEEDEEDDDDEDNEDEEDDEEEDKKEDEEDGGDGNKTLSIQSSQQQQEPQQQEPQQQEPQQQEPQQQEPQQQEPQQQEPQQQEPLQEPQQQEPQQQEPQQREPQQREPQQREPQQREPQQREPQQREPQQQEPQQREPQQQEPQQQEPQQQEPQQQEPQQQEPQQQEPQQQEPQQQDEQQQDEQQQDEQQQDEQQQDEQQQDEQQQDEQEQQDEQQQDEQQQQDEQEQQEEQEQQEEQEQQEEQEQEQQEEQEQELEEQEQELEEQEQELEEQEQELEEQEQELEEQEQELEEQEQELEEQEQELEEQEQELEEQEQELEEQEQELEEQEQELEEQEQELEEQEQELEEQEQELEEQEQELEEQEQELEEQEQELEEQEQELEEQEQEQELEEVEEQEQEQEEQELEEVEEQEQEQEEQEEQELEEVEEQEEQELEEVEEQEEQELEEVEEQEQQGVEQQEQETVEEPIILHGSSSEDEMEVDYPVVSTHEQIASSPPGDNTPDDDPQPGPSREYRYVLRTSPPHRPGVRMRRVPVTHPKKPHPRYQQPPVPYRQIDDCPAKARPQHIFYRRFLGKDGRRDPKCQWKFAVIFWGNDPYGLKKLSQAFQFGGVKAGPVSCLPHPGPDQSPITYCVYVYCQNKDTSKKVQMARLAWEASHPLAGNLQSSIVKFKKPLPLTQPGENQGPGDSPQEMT
Glyceraldehyde-3-phosphate dehydrogenase, sequence (P04406 whole entry): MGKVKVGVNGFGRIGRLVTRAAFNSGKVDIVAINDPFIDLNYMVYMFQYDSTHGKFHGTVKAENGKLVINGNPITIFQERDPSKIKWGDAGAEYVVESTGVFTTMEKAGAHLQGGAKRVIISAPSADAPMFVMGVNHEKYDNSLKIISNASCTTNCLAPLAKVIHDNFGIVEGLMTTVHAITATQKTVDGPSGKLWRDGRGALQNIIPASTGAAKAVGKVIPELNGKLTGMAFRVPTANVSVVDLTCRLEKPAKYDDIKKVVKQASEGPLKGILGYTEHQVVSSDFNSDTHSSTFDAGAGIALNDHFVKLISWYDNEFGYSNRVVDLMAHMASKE
Heat shock cognate 71 kDa protein, sequence (P11142 whole entry): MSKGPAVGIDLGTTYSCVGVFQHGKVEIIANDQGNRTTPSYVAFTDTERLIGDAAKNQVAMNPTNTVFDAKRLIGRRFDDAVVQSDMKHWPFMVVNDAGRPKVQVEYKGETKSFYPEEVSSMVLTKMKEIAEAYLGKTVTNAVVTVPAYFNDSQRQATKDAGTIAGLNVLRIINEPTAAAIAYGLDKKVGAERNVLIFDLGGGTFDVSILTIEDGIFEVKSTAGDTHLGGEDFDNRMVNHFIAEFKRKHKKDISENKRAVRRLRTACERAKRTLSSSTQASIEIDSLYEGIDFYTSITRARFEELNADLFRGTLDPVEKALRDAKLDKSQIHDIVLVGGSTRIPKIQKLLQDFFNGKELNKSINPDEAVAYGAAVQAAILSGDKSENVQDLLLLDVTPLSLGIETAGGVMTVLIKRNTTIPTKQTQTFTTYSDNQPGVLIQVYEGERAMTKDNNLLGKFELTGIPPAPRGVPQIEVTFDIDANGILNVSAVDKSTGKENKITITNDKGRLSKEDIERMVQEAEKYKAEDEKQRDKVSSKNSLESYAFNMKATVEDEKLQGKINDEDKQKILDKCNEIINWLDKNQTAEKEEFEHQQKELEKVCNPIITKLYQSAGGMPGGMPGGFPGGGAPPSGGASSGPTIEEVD

COc1ccc(N(C(=O)CCl)C(C(=O)NCCc2ccccc2)C2CCCCC2)cc1Cl (stereo unspecified)
AC50 [1]: 0.505 µM (active)
AC50 [2]: 1.18 µM (active)
AC50 [3]: 0.496 µM (active)
AC50 [4]: 1.48 µM (active)

CCN(CC)C(=O)c1ccc2c(c1)C1C=CCC1C(C(=O)O)N2 (stereo unspecified)
EC50 [5]: 11.2 µM (active)
EC50 [6]: 6.32 µM (active)
IC50 [7]: > 100 µM (not active)
IC50 [8]: > 100 µM (not active)
IC50 [9]: > 100 µM (not active)
IC50 (Genome polyprotein): 86.7 µM (active)
AC50 (ORF 73): 166 µM (active)

C=CCn1/c(=N/C(=O)c2cc(-c3cccs3)nc3ccccc23)sc2cc(S(N)(=O)=O)ccc21
CC50 [10]: 17.2 µM (active)
EC50 (Caspase-7): > 3.16 µM (active)
EC50 (Caspase-3): 3.26 µM (active)
EC50 [11]: 30.1 µM (active)
IC50 [12]: 21.6 µM (active)
IC50 [13]: 11.5 µM (active)
EC50 [14]: 25.3 µM (active)
AC50 (INS1): 19.3 µM (active)

Cc1ccc(NC(=O)C2CCN(C(=O)c3cccs3)CC2)cc1
IC50 [15]: > 100 µM (inactive)
IC50 [16]: > 100 µM (inactive)
